Measurements from patent US20140148484A1, “PYRAZOLE COMPOUNDS FOR TREATING HAIRLOSS” (Boehringer Ingelheim International GmbH, priority 2012, published 2014).

molecular target: T1, human CRTH2 receptor (Homo sapiens, UniProt Q9Y5Y4); assay: Human CRTH2 receptor membrane radioligand binding assay (SPA, [3H]-PGD2); conditions: displacement of [3H]-PGD2 (1 nM) from CHO-K1-hCRTH2 cell membranes, 3 h room temperature
T1 construct: host or cells: CHO-K1 (CHO-K1-hCRTH2 cells); membranes prepared in house from the purchased cell line
T1 sequence (Q9Y5Y4 1-395): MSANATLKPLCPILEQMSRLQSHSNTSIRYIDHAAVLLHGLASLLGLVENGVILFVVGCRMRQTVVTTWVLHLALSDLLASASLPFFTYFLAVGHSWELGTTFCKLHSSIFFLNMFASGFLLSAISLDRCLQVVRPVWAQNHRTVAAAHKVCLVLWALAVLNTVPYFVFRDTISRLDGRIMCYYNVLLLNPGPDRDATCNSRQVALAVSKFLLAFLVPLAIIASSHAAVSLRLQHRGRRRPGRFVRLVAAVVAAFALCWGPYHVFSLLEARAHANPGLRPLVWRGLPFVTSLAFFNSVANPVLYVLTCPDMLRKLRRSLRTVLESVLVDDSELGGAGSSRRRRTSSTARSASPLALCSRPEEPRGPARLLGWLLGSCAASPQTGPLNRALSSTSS
Procedure, shortened: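 SPA binding using membranes from CHO-K1 cells expressing human CRTH2 (0.5–10 μg protein/well) with 1 nM [3H]-PGD2 in Tris pH 7.4 buffer with 0.1% BSA, 3 h at room temperature. Non-specific binding defined with 1 μM PGD2 or 10 μM CAY10471; inhibition calculated from specific binding.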

SMILES	Ki
CCc1nn(Cc2ccc(/C=C/c3ccc(Cl)cc3)cc2)c(CC)c1CC(=O)O [Example 12.3]	12.3 nM
Cc1nn(Cc2ccc(OCc3ccc(Cl)c(Cl)c3)cc2)c(C)c1CC(=O)O [Example 13.1]	30 nM
Cc1nn(Cc2ccc(OCc3ccc(C(F)(F)F)cc3)cc2)c(C)c1CC(=O)O [Example 13.2]	1070 nM
Cc1cc(Cl)ccc1COc1ccc(Cn2nc(C)c(CC(=O)O)c2C)cc1 [Example 13.3]	619 nM
Cc1nn(Cc2ccc(OCc3ccccc3)cc2)c(C)c1CC(=O)O [Example 13.4]	325 nM
COc1ccc(COc2ccc(Cn3nc(C)c(CC(=O)O)c3C)cc2)cc1C(F)(F)F [Example 13.6]	28.9 nM
CCc1nn(Cc2ccc(OCc3cc(Cl)cc(Cl)c3)cc2)c(CC)c1CC(=O)O [Example 13.8]	15.5 nM
CCc1nn(Cc2ccc(OCc3cccc(Cl)c3)cc2)c(CC)c1CC(=O)O [Example 13.9]	39.1 nM
CCc1nn(Cc2ccc(OCc3cccc(C(F)(F)F)c3)cc2)c(CC)c1CC(=O)O [Example 13.10]	19.6 nM
CCc1nn(Cc2ccc(OCc3ccc(OC)c(C(F)(F)F)c3)cc2)c(CC)c1CC(=O)O [Example 13.12]	5 nM
Cc1nn(Cc2ccc(COc3ccccc3)cc2)c(C)c1CC(=O)O [Example 14.3]	742 nM
Cc1nn(Cc2ccc(C(C)Oc3ccc(Cl)c(Cl)c3)cc2)c(C)c1CC(=O)O (stereo not drawn) [Example 14.4]	29 nM
Cc1nn(Cc2ccc(C(O)Cc3ccccc3)cc2)c(C)c1CC(=O)O (stereo not drawn) [Example 15.1]	785 nM
Cc1nn(Cc2ccc(C(=O)Cc3ccccc3)cc2)c(C)c1CC(=O)O [Example 15.2]	552 nM
Cc1nn(Cc2ccc(CSc3ccc(C(F)(F)F)cc3)cc2)c(C)c1CC(=O)O [Example 16.1]	992 nM
Cc1nn(Cc2ccc(CS(=O)(=O)c3ccc(C(F)(F)F)cc3)cc2)c(C)c1CC(=O)O [Example 16.3]	2290 nM
Cc1nn(Cc2ccc(CS(=O)(=O)c3ccc(Cl)c(Cl)c3)cc2)c(C)c1CC(=O)O [Example 16.6]	853 nM
CCc1nn(C(C)c2ccc(C(=O)Nc3ccc(C(F)(F)F)cc3)cc2)c(CC)c1CC(=O)O (stereo not drawn) [Example 17.2]	4.3 nM
Cc1nn(Cc2ccc([S+]([O-])Cc3ccc4ccccc4c3)cc2)c(C)c1CC(=O)O (stereo not drawn) [Example 19.1]	43.5 nM
Cc1nn(Cc2ccc([S+]([O-])Cc3ccc(Cl)c(Cl)c3)cc2)c(C)c1CC(=O)O (stereo not drawn) [Example 19.2]	12 nM
CCc1nn(Cc2ccc([S+]([O-])Cc3ccc(Cl)c(Cl)c3)cc2)c(CC)c1CC(=O)O (stereo not drawn) [Example 19.3]	12.2 nM
CCc1nn(Cc2ccc([S+]([O-])Cc3ccccc3)cc2)c(CC)c1CC(=O)O (stereo not drawn) [Example 19.4]	48.8 nM

More lines, now with the values ahead:

Ki	SMILES
1530 nM	Cc1nn(Cc2ccc(COc3ccc(C(F)(F)F)cc3)cc2)c(C)c1CC(=O)O [Example 14.1]
875 nM	Cc1nn(Cc2ccc(CSc3ccc(Cl)c(Cl)c3)cc2)c(C)c1CC(=O)O [Example 16.4]
428 nM	Cc1nn(Cc2ccc(C(C)Oc3ccccc3)cc2)c(C)c1CC(=O)O (stereo not drawn) [Example 14.6]
325 nM	Cc1nn(Cc2ccc(C[S+]([O-])c3ccc(Cl)c(Cl)c3)cc2)c(C)c1CC(=O)O (stereo not drawn) [Example 16.5]
324 nM	Cc1nn(Cc2ccc(C[S+]([O-])c3ccc(C(F)(F)F)cc3)cc2)c(C)c1CC(=O)O (stereo not drawn) [Example 16.2]
253 nM	Cc1nn(Cc2ccc(C(C)Oc3ccc(C(F)(F)F)cc3)cc2)c(C)c1CC(=O)O (stereo not drawn) [Example 14.5]
49.9 nM	CCc1nn(Cc2ccc(OCc3cccc(C)c3)cc2)c(CC)c1CC(=O)O [Example 13.13]
48.8 nM	CCc1nn(Cc2ccc(OCc3ccc(OC(F)(F)F)c(Cl)c3)cc2)c(CC)c1CC(=O)O [Example 13.11]
43 nM	Cc1nn(Cc2ccc(COc3ccc(Cl)c(Cl)c3)cc2)c(C)c1CC(=O)O [Example 14.2]
36 nM	Cc1nn(Cc2ccc(OCc3ccc(Cl)c(C(F)(F)F)c3)cc2)c(C)c1CC(=O)O [Example 13.5]
1.6 nM	Cc1nn(Cc2ccc(NC(=O)c3ccc(Cl)c(Cl)c3)cn2)c(C)c1CC(=O)O [Example 18.1]
0.1 nM	CCc1nn(C(C)c2ccc(NC(=O)c3ccc(C(F)(F)F)cc3)cc2)c(CC)c1CC(=O)O (stereo not drawn) [Example 17.1]

system: explanted human hair follicles; assay: not given; conditions: administration to explanted human hair follicles; cited from earlier work

SMILES	hair growth
CCCCC[C@H](O)/C=C/[C@H]1C(=O)C[C@H](O)[C@@H]1C/C=C\CCCC(=O)O [PGD2, prostaglandin D2]	inhibited hair growth

system: hair growth in mice; assay: not given; conditions: applied topically to the skin of wild-type mice; cited from earlier work

SMILES	hair growth
CCCCC[C@H](O)/C=C/[C@H]1C(=O)C[C@H](O)[C@@H]1C/C=C\CCCC(=O)O [PGD2, prostaglandin D2]	inhibited hair growth
